“Also recorded” adds a separate entry of the source.
Key:
Assay type in all cases: cell-based
[1] = system: LNCaP cells; assay: Prostate cancer cell line growth inhibition assay, LNCaP; details: Homo sapiens, 72 h, read-out: AR positive LnCaP GI50
Procedure: Prostate Cancer Cell Line Growth Inhibition Assays: The PC-3, DU-145, LNCaP, C4-2, and 22Rv1 PC cell line growth inhibition assays have been described previously (Fancher et al., Assay Drug Dev Technol. 2016, 14:453-477; Fancher et al., Assay Drug Dev Technol. 2019, 17:364-386). On day 1, each PC cell line was harvested, counted, and seeded into two 384-well assay plates, a time zero (T0) and a time 72 h (T72) plate. PC cell lines were all seeded at 1,000 cells per well in 45 μL of tissue culture media in uncoated white clear bottom 384-well assay plates (VWR, #82050-076) using a Matrix electronic multichannel pipette (Thermo Fisher Scientific, Waltham, MA) and cultured overnight at 37° C., 5% CO2, and 95% humidity. On day 2, 25 μL of the CellTiter-Glo® (CTG) (Promega Corporation, Madison, WI) detection reagent was dispensed into the wells of the TO assay plate using a Matrix electronic multichannel pipette, and the RLUs were captured on the SpectraMax® M5e (Molecular Devices LLC, Sunnyvale, CA) microtiter plate reader. Also on day 2, 5 μL of compounds were transferred into the test wells of the T72 384-well assay plates which were returned to the incubator for 72 h. Control wells received DMSO alone. On day 5, 25 μL of the CTG detection reagent was dispensed into the wells of the T72 assay plate using a Matrix electronic multichannel pipette, and the RLU's were captured on the SpectraMax® M5e microtiter plate reader platform.
For the 96-well AR-LBD H^3-DHT radioligand binding assay, eight minimum and maximum plate control wells were utilized to normalize the data. […] To normalize the 72 h compound exposure PC growth inhibition data, the signals from the compound treated wells were processed and expressed as % of the T72 DMSO plate controls. IC50 and GI50 values for each of the bioassays were calculated using GraphPad Prism 9 software to plot and fit data to curves using the Sigmoidal dose response variable slope equation Y=Bottom+[Top-Bottom]/[1+10^(Log EC50−X)*HillSlope].

[2] = target: T1, AR (Homo sapiens, UniProt P10275, T878A); assay: Western blotting cellular thermal shift assay for AR in C4-2 cells; details: for AR thermal stability at 46° C., compound alone (western blot): hits 20 μM for 1 h at 37° C.; for DHT-enhanced AR thermal stability at 46° C. (western blot): hits 20 μM, 10 nM DHT
T1 construct: the amount of soluble AR protein in heat shocked C4-2 cell lysates; endogenous in cells; host or cells: C4-2 castration resistant prostate cancer cells
T1 sequence (P10275 1-920 T878A): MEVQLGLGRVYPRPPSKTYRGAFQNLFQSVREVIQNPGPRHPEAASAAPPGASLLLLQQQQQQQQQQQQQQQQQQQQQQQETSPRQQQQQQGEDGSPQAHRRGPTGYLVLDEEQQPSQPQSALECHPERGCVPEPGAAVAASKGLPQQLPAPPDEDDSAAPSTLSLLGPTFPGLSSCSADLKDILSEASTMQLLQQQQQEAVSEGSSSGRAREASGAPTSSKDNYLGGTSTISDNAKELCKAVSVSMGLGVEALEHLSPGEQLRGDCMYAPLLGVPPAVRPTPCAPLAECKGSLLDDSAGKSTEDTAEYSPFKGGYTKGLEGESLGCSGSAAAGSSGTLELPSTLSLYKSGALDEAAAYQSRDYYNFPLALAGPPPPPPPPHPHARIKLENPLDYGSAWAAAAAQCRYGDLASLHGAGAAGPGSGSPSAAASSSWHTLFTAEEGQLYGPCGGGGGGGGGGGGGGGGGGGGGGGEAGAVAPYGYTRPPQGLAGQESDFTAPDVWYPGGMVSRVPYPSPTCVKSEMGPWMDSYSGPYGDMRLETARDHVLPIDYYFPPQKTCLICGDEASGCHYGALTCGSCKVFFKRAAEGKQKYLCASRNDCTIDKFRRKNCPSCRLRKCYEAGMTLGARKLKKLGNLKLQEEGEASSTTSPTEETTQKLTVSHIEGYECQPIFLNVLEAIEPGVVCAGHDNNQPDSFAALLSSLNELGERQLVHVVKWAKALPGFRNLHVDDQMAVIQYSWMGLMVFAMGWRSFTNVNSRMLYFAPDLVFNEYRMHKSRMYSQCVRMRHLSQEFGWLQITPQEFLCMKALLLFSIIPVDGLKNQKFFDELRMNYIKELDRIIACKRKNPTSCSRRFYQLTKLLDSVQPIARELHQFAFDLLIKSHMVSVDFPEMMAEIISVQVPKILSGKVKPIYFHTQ
Procedure: (§1) Western Blotting Cellular Thermal Shift Assays for TIF2 and AR Target Engagement in C4-2 Cells: C4-2 cells were harvested by trypsinization, washed 1× by centrifugation at 270×g for 5 min and resuspension in PBS, counted, centrifugated at 270× g for 5 min and resuspended at 7×10^6 cells per mL in Opti-MEM medium (Gibco, Gaithersburg, MD). 50 μL of C4-2 cell suspension (3.5×10^5 cells) were then transferred to PCR tubes that were placed in a T-100 thermocycler (BioRad, Hercules, CA) and a 2° C. interval temperature step gradient from 37° C. to 53° C. was applied. Cells were maintained at each step of the temperature gradient for 5 min and then tubes were withdrawn and placed on ice. 50 μL of cell lysis buffer, 500 mM NaCl, 1% NP-40, 1× protease inhibitor cocktail in PBS were added to the heat shocked cell suspensions in PCR tubes and placed on ice for an additional 30 min. Cell lysates were then centrifuged at 14,000 RPM (18,800×g) at 4° C. for 15 min and supernatants were transferred to new tubes and protein concentrations were determined in a bicinchoninic acid (BCA) assay. 45 μL of cell lysis supernatants were mixed with 15 μL of 5×SDS-PAGE sample buffer and placed in a heat block at 100° C. for 5 min. The protein constituents of heat shocked C4-2 cell lysis supernatants were separated by SDS-PAGE on 8% separating gels, transferred to nitrocellulose membranes that were blocked for 1 h at room temperature in 5% non-fat milk in TBST, and then probed overnight at 4° C. with a 1:1000 dilution of either rabbit anti-AR (Cell Signaling, Danvers, MA) or rabbit anti-TIF2 (Bethyl Laboratories, Waltham, MA) primary antibodies in TBST containing 5% non-fat milk. Membranes were then washed 3× in TBST buffer for 10 min, then incubated with a 1:10,000 dilution of the goat anti-rabbit IgG HRP conjugated secondary antibody (Invitrogen, Carlsbad, CA) in TBST containing 5% non-fat milk for 1 h at room temperature. Western blots were then washed 3× in TBST buffer and developed with Pierce ECL western blotting substrate. Images of ECL western blots were acquired on an iBright™ 1500 imaging system and quantified using the iBright™ image analysis software.

[3] = target: T2, TIF2 (Homo sapiens, UniProt Q15596); assay: Western blotting cellular thermal shift assay for TIF2 in C4-2 cells; details: 20 μM, TIF2 western blots
T2 construct: endogenous in cells; host or cells: C4-2 castration resistant prostate cancer cells
T2 sequence (Q15596 whole entry): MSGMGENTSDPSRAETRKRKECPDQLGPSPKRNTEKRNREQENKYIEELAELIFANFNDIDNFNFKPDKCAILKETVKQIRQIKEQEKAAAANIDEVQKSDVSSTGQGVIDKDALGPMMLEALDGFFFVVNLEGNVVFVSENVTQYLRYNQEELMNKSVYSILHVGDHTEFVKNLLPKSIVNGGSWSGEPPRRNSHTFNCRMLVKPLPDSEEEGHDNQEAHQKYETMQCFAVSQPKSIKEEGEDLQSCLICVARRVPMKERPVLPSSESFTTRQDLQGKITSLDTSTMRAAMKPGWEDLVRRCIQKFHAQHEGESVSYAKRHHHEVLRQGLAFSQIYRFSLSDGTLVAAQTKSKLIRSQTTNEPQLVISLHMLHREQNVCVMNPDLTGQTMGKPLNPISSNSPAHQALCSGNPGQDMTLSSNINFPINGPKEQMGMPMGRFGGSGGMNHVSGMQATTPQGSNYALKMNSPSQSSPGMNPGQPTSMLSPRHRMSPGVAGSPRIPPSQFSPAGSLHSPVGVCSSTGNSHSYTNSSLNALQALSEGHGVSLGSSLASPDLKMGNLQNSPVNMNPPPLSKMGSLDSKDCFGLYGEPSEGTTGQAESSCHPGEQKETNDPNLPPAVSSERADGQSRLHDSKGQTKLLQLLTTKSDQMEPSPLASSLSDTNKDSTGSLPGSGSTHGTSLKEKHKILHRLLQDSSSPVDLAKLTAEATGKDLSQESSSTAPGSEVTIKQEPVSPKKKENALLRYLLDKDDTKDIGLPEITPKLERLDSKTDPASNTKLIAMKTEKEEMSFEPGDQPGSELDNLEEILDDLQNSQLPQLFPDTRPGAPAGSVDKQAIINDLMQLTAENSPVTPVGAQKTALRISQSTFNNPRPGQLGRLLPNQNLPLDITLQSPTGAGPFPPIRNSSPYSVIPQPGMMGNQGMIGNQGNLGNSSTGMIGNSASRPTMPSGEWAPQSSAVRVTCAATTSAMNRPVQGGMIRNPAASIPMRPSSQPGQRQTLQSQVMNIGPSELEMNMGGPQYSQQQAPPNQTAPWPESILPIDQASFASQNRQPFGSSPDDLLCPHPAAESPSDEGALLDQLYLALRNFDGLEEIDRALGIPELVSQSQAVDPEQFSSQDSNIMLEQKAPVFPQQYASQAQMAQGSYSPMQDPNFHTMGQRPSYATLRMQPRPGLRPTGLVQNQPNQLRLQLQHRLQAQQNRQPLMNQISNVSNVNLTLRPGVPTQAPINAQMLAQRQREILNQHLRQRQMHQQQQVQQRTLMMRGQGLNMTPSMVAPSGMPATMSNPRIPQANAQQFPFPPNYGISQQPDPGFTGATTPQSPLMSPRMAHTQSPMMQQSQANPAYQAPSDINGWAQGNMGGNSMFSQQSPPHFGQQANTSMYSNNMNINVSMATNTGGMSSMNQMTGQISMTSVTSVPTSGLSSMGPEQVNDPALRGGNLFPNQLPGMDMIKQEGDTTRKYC
Procedure: as §1

Row | SMILES | GI50 [1] [µM] | AR thermal stability at 46° C., compound alone (western blot) [2] | DHT-enhanced AR thermal stability at 46° C. (western blot) [2] | TIF2 thermal stability at 46° C. [3] | TIF2 thermal stability at 46° C. ([3]; listed as 6)
1 | Cc1nsc(NC(=O)N2CCC(Sc3ccccc3C)CC2)n1 [Compound S2-6] | 15.6 | did not stabilize AR | blocked DHT-enhanced AR thermal stabilization below DMSO baseline levels; also recorded: inhibition of DHT-enhanced AR thermal stability | did not enhance TIF2 thermal stability; also recorded: do not enhance TIF2 thermal stability | did not enhance TIF2 stability
2 | Cc1ccccc1-c1cc(O)c2c(c1)CN(c1nc(C(N)=O)cs1)CCO2 [Compound S1-1] | 24.4 | did not stabilize AR | only partially blocked DHT-enhanced AR stabilization; also recorded: inhibition of DHT-enhanced AR thermal stability | did not enhance TIF2 thermal stability; also recorded: do not enhance TIF2 thermal stability | 
3 | Cc1c(-c2ccccc2F)[nH]c2ccc(CNC(=O)CCc3cn[nH]c3)cc12 [Compound S3-11] | 6.35 | did not stabilize AR | only partially blocked DHT-enhanced AR stabilization; also recorded: inhibition of DHT-enhanced AR thermal stability | did not enhance TIF2 thermal stability; also recorded: do not enhance TIF2 thermal stability | 

— patent US20260083751A1, “ALLOSTERIC MODULATORS OF ANDROGEN RECEPTOR COACTIVATOR RECRUITMENT FOR CRPC THERAPY” (University of Pittsburgh – Of the Commonwealth System of …, priority 2022, published 2026)
